For this assay, the species on record is Ovis aries. Kind of assay: Effect of compound (400 uM) on biosynthesis of prostaglandins from tritiated arachidonic acid was evaluated in vitro; NE = No effect at the given concentration. It is filed as functional.

As for `CCc1cccc2c3c([nH]c12)C(CC)(CC(=O)O)OCC3` (single isomer, unassigned; (-)), the Activity result was “No effect”.

These data come from ChEMBL document CHEMBL1122422, “Resolution of etodolac and antiinflammatory and prostaglandin synthetase inhibiting properties of the enantiomers” (J Med Chem, 1983).
